This is an account of results in patent US20090042904A1 (LABORATORIOS DEL DR. ESTEVE S.A., priority 2004, published 2009).

The structures appear in SMILES notation.

For orientation: Ki means a dissociation constant, usually derived from enzyme kinetics or from competition with a known ligand.

The assay deals with T1, 5HT6-human recombinant receptor (Homo sapiens, UniProt P50406).
T1 construct: purchased Receptor Biology; host or cells: HEK-293 cells (membranes)
Description: Binding to serotonin receptor 5-HT6 ([3H]-LSD displacement). As to conditions: membranes of HEK-293 cells expressing the receptor; radioligand [3H]-LSD 2.7 nM; 60 minutes at 37° C. As for the experimental part:
I) Binding to Serotonin Receptor 5-HT6
Cell membranes of HEK-293 cells expressing the 5HT6-human recombinant receptor were supplied by Receptor Biology. In said membranes the receptor concentration is 2.18 pmol/mg protein and the protein concentration is 9.17 mg/ml. The experimental protocol follows the method of B. L. Roth et al. [B. L. Roth, S. C. Craigo, M. S. Choudhary, A. Uluer, F. J. Monsma, Y. Shen, H. Y. Meltzer, D. R. Sibley: Binding of Typical and Atypical Antipsychotic Agents to 5-Hydroxytryptamine-6 and Hydroxytryptamine-7 Receptors. The Journal of Pharmacology and Experimental Therapeutics, 1994, 268, 1403] with the following slight changes. The respective part of the literature description is hereby incorporated by reference and forms part of the disclosure.
The commercial membrane is diluted (1:40 dilution) with the binding buffer: 50 mM Tris-HCl, 10 mM MgCl2,0.5 mM EDTA (pH 7.4). The radioligand used is [^3H]-LSD at a concentration of 2.7 nM with a final volume of 200 μl. Incubation is initiated by adding 100 μl of membrane suspension, (≈22.9 μg membrane protein), and is prolonged for 60 minutes at a temperature of 37° C. The incubation is ended by fast filtration in a Brandel Cell Harvester through fiber glass filters made by Schleicher & Schuell GF 3362 pretreated with a solution of polyethylenimine at 0.5%. The filters are washed three times with three milliliters of buffer Tris-HCl 50 mM pH 7.4. The filters are transferred to flasks and 5 ml of Ecoscint H liquid scintillation cocktail are added to each flask. The flasks are allowed to reach equilibrium for several hours before counting with a Wallac Winspectral 1414 scintillation counter. Non-specific binding is determined in the presence of 100 μM of serotonin. Tests were made in triplicate. The inhibition constants (Ki, nM) were calculated by non-linear regression analysis using the program EBDA/LIGAND described in Munson and Rodbard, Analytical Biochemistry, 1980, 107, 220, the respective part of which is hereby incorporated by reference and forms part of the disclosure.
The binding of the substituted phenyl-piperazine compounds to the 5-HT6 receptor was determined as described above.

T1 sequence (P50406 whole entry): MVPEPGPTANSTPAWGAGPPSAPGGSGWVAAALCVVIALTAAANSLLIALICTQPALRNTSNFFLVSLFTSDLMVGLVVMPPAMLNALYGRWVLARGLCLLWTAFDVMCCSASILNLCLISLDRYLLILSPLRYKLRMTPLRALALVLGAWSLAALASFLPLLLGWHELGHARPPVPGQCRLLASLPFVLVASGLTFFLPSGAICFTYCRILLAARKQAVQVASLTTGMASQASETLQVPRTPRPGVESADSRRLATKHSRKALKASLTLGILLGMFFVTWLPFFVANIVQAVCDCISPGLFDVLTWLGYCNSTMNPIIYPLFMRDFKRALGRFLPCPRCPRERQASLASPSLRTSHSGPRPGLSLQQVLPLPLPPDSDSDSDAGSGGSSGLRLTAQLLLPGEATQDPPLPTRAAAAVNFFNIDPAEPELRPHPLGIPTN

As to `COc1ccc(N2CCN(C)CC2)cc1NCc1ccccc1` [Example 11, Benzyl-[2-methoxy-5-(4-methyl-piperazin-1-yl)-phenyl]-amine], the inhibition constant (Ki) turned out to be 409 nM.
To `CN1CCN(c2ccc(NS(=O)(=O)c3ccccc3)c(NCc3ccccc3)c2)CC1` [Example 24, N-[2-Benzylamino-4-(4-methyl-piperazin-1-yl)-phenyl]-benzenesulfonamide] belongs 60.2 nM; to `CN1CCN(c2ccc(C#N)c(NCc3ccccc3)c2)CC1` [Example 5, 2-Benzylamino-4-(4-methyl-piperazin-1-yl)-benzonitrile], 108 nM.
For `COC(=O)c1ccc(N2CCN(C)CC2)cc1NCCc1ccccc1` [Example 6, 4-(4-Methyl-piperazin-1-yl)-2-phenethylamino-benzoic acid methyl ester] the value was 462 nM.
To `CC(=O)N(Cc1ccccc1)c1ccc(N2CCN(C)CC2)cc1N` [Example 23, N-[2-Amino-4-(4-methyl-piperazin-1-yl)-phenyl]-N-benzyl-acetamide] belongs 164 nM; to `CN1CCN(c2ccc(OCc3ccccc3)c(NCCc3ccccc3)c2)CC1` [Example 9, [2-Benzyloxy-5-(4-methyl-piperazin-1-yl)-phenyl]-phenethyl-amine], 1280 nM.
As to `CN1CCN(c2ccc(OCc3ccccc3)c(NCc3ccco3)c2)CC1` [Example 10], the inhibition constant (Ki) was determined as 402 nM.
